Assay results published in patent US20090221624A1, “4-AMINOQUINOLINE COMPOUNDS FOR TREATING VIRUS-RELATED CONDITIONS” (priority 2005, published 2009).

What was measured:
[1] = tested on: HCV replicon (Clone A cells, Huh7, subgenomic hepatits C virus RNA); test: HCV Neo screening assay (HCV replicon, NPTII ELISA); type: cell-based, hepatitis C virus; settings: for EC50 / inhibition at 25 µM: Hepatitis C virus, Huh-7; for EC50: Secondary Data, HCV; for inhibition at 25 µM: primary screening, 25 μM final concentration, 24 hours, percent inhibition of viral replication, read-out: HCV Inh; for HCV TI: therapeutic index CC50/EC50, HCV
RSV minigenome = test: RSV minigenome-dependent β-galactosidase expression assay (RSV β-Gal); type: cell-based, respiratory syncytial virus; settings: for EC50 / inhibition at 25 µM: human respiratory syncytial virus; for EC50: Secondary Data, RSV, read-out: RSV EC50; for inhibition at 25 µM: primary screening, 25 μM final concentration, 24 hours, percent inhibition of viral replication, read-out: RSV Inh; for RSV TI: therapeutic index CC50/EC50, RSV
WNV (WN-hRuPac cells) = test: WNV antiviral activity, WN-hRuPac cells, Renilla luciferase; type: cell-based, West Nile virus; settings: for EC50 / inhibition at 25 µM: West Nile virus; for EC50: Secondary Data, WNV, read-out: WNV EC50; for inhibition at 25 µM: primary screening, 25 μM final concentration, 24 hours, percent inhibition of viral replication, read-out: WNV Inh; for WNV TI: therapeutic index CC50/EC50, WNV
YFV (YF-hRuPac cells) = test: microbe, parasite or virus in culture; type: cell-based, yellow fever virus; settings: for inhibition at 25 µM / EC50: Yellow fever virus; for inhibition at 25 µM: 24 h, read-out: YFV Inh; for EC50: read-out: YFV EC50
DNG (D2-hRuPac cells) = test: DNG antiviral activity, D2-hRuPac cells, Renilla luciferase; type: cell-based, Dengue fever virus; settings: Dengue virus, secondary screening
EBOV minigenome = test: microbe, parasite or virus in culture; type: cell-based, Ebola virus; settings: Zaire ebolavirus; for inhibition at 25 µM: 24 h, read-out: EBOV Inh; for EC50: read-out: EBOV EC50
SINV (SR19-F-luc cells) = test: SINV antiviral activity, SR19-F-luc cells, Firefly luciferase; type: cell-based; settings: Sindbis virus; for inhibition at 25 µM: primary screening, 25 μM final concentration, 24 hours, percent inhibition of viral replication, read-out: SINV Inh; for EC50: secondary screening, SR19-F-luc cells

| SMILES | EC50 [1] | inhibition at 25 µM [1] | HCV TI [1] | EC50 (RSV minigenome) | inhibition at 25 µM (RSV minigenome) | RSV TI (RSV minigenome) | EC50 (WNV (WN-hRuPac cells)) | inhibition at 25 µM (WNV (WN-hRuPac cells)) | WNV TI (WNV (WN-hRuPac cells)) | YFV TI (YFV (YF-hRuPac cells)) | inhibition at 25 µM (YFV (YF-hRuPac cells)) | EC50 (YFV (YF-hRuPac cells)) | inhibition at 25 µM (EBOV minigenome) | inhibition at 25 µM (SINV (SR19-F-luc cells)) | CC50 (in vitro; DNG CC50) | CC50 (in vitro; EBOV CC50) | CC50 (in vitro; RSV CC50) | CC50 (in vitro; SINV CC50) | CC50 (in vitro; WNV CC50) | CC50 (in vitro; YFV CC50) | other results |
| --- | --- | --- | --- | --- | --- | --- | --- | --- | --- | --- | --- | --- | --- | --- | --- | --- | --- | --- | --- | --- | --- |
| c1ccc2cc(Nc3c4ccccc4nc4ccccc34)ccc2c1 [Compound 1] | 6.52 µM | 177% | 0.59 | 1.89 µM | 99.9% | 25.16 | 5.7 µM | 65.4% | 8.34 | 7.5 | 77.5% | 6.34 µM | 39.8% | 34.1% | 47.6 µM | 47.6 µM | 47.6 µM | 47.6 µM | 47.6 µM | 47.6 µM | EC50 (DNG (D2-hRuPac cells)): 7.17 µM; EC50 (EBOV minigenome): 35.8 µM; EC50 (SINV (SR19-F-luc cells)): 28.1 µM; CC50 (in vitro; HCV CC50): 3.83 µM |
| CCc1ccccc1Nc1c2ccccc2nc2ccccc12 [Compound 2] | 8 µM | 154% | 0.77 | 1.3 µM | 99.8% | 25.33 | 17.8 µM | 49.6% | 1.85 | 4.95 | 71.8% | 6.65 µM | 20.1% | 70.2% | 32.9 µM | 32.9 µM | 32.9 µM | 32.9 µM | 32.9 µM | 32.9 µM | EC50 (DNG (D2-hRuPac cells)): 21.3 µM; EC50 (EBOV minigenome): 38.7 µM; EC50 (SINV (SR19-F-luc cells)): 19.3 µM; CC50 (in vitro; HCV CC50): 6.12 µM |
| Cc1ccc(Nc2cc(C)nc3ccc(C)cc23)cc1 [Compound 6] | 14 µM | 187% | 0.84 | 9.86 µM | 91.2% | 3.57 | 38.7 µM | 79.1% | 0.91 | 2.73 | 77.7% | 12.9 µM | 42.7% | 76.8% | 35.2 µM | 35.2 µM | 35.2 µM | 35.2 µM | 35.2 µM | 35.2 µM | EC50 (SINV (SR19-F-luc cells)): 2.3 µM; CC50 (in vitro; HCV CC50): 11.7 µM |
| Cc1cccc(Nc2c3c(nc4ccccc24)CCC3)c1 [Compound 11] | 3.37 µM | 143% | 2.87 | 2.9 µM | 99.5% | 9.91 | 9.79 µM | 75% | 2.94 | 5.74 | 79.1% | 5.01 µM | 62.7% | 81.7% | 28.8 µM | 28.8 µM | 28.8 µM | 28.8 µM | 28.8 µM | 28.8 µM | EC50 (EBOV minigenome): 25.9 µM; EC50 (SINV (SR19-F-luc cells)): 2.8 µM; CC50 (in vitro; HCV CC50): 9.67 µM |
| CCOC(=O)c1cnc2c(Cl)c(Cl)ccc2c1NCc1ccco1 [Compound 19] | – | 50.9% | – | 1.77 µM | 82.3% | 11.81 | 3.98 µM | 80.6% | 5.25 | 7.98 | 93.2% | 2.62 µM | 0.97% | 11.9% | 20.9 µM | 20.9 µM | 20.9 µM | 20.9 µM | 20.9 µM | 20.9 µM | EC50 (EBOV minigenome): 75 µM |
| Cc1ccc(Nc2c3c(nc4ccc(C)cc24)CCC3)cc1 [Compound 28] | 7.47 µM | 155% | 0.91 | 4.58 µM | 93.7% | 9.56 | 17.4 µM | 75.2% | 2.52 | 6.45 | 75% | 6.79 µM | 19.2% | 81.3% | 43.8 µM | 43.8 µM | 43.8 µM | 43.8 µM | 43.8 µM | 43.8 µM | EC50 (SINV (SR19-F-luc cells)): 2.73 µM; CC50 (in vitro; HCV CC50): 6.82 µM |
| Cc1cc(Nc2ccc(C)c(Cl)c2)c2cccc(C)c2n1 [Compound 50] | 8.62 µM | 138% | 0.85 | 6.76 µM | 85.5% | 9.79 | 6.3 µM | 82% | 10.51 | 19.41 | 92.2% | 3.41 µM | 42.6% | 65.8% | 66.2 µM | 66.2 µM | 66.2 µM | 66.2 µM | 66.2 µM | 66.2 µM | CC50 (in vitro; HCV CC50): 7.32 µM |
